Results reported in US7713994B2 (Wyeth LLC, priority 2005, dated 2010).

Target: T1, cyclin D1/cdk 4 enzyme (Homo sapiens, UniProt P11802)
T1 construct: made in house; host or cells: Sf9 insect cells, recombinant baculovirus
Test: CDK4 ELISA kinase assay (phospho-Rb ser 795 detection)
Type: biochemical
Details: In Vitro Enzyme Assay, cyclin D1/cdk 4, read-out: CDK4 IC50
Outline: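 Partially purified Sf9-expressed cyclin D1/CDK4, cyclin E/CDK2 or cyclin B/CDK1 phosphorylated plate-bound GST-Rb C-terminal fragment with 200 μM ATP at 30° C for 1 h.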

T1 sequence (P11802 whole entry, species assumed): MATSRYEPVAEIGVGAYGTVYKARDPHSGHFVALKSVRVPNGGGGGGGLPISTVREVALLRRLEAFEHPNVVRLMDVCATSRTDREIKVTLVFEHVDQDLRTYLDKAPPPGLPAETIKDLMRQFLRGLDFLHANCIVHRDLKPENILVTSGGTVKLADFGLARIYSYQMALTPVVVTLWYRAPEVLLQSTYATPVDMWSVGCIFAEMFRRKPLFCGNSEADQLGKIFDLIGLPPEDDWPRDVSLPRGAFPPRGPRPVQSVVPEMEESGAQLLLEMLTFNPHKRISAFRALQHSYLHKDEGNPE
T1 sequence (P24385 whole entry partner, species assumed): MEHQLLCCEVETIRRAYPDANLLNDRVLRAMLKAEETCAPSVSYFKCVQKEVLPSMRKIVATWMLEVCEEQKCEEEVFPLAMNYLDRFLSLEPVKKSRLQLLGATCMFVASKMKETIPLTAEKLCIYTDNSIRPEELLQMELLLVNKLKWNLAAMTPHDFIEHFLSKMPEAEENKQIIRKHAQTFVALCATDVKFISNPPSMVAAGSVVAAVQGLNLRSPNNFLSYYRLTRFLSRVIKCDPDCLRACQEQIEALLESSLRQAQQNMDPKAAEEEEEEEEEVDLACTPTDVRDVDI

Compound	IC50
CN1CCN(c2ccc(NC=C3C(=O)NC(=O)c4ccc(-c5ccc(-c6ccccc6)cc5)cc43)cc2)CC1 [Example 696, 6-Biphenyl-4-yl-4-{[4-(4-methyl-piperazin-1-yl)-phenylamino]-methylene}-4H-isoquinoline-1,3-dione]	27.3 µM
CN1CCN(c2ccc(NC=C3C(=O)NC(=O)c4ccc(-c5cccc(-c6ccccc6)c5)cc43)cc2)CC1 [Example 697, 6-Biphenyl-3-yl-4-{[4-(4-methyl-piperazin-1-yl)-phenylamino]-methylene}-4H-isoquinoline-1,3-dione]	48.6 µM
CSc1ccc(-c2ccc3c(c2)C(=CNc2ccc(N4CCN(C)CC4)cc2)C(=O)NC3=O)cc1 [Example 700, 4-{[4-(4-Methyl-piperazin-1-yl)-phenylamino]-methylene}-6-(4-methylsulfanyl-phenyl)-4H-isoquinoline-1,3-dione]	45 µM
COc1cccc(-c2ccc3c(c2)C(=CNc2ccc(CC#N)cc2)C(=O)NC3=O)c1 [Example 702, (4-{[6-(3-Methoxy-phenyl)-1,3-dioxo-2,3-dihydro-1H-isoquinolin-4-ylidenemethyl]-amino}-phenyl)-acetonitrile]	20.9 µM
COc1ccccc1-c1ccc2c(c1)C(=CNc1ccc(CC#N)cc1)C(=O)NC2=O [Example 703, (4-{[6-(2-Methoxy-phenyl)-1,3-dioxo-2,3-dihydro-1H-isoquinolin-4-ylidenemethyl]-amino}-phenyl)-acetonitrile]	18.5 µM
N#CCc1ccc(NC=C2C(=O)NC(=O)c3ccc(-c4cccc(F)c4)cc32)cc1 [Example 705, (4-{[6-(3-Fluoro-phenyl)-1,3-dioxo-2,3-dihydro-1H-isoquinolin-4-ylidenemethyl]-amino}-phenyl)-acetonitrile]	12.6 µM
N#CCc1ccc(NC=C2C(=O)NC(=O)c3ccc(-c4ccc(C(=O)O)cc4)cc32)cc1 [Example 707, 4-{4-[(4-Cyanomethyl-phenylamino)-methylene]-1,3-dioxo-1,2,3,4-tetrahydro-isoquinolin-6-yl}-benzoic acid]	3.8 µM
N#CCc1ccc(NC=C2C(=O)NC(=O)c3ccc(-c4cccc(C(=O)O)c4)cc32)cc1 [Example 708, 3-{4-[(4-Cyanomethyl-phenylamino)-methylene]-1,3-dioxo-1,2,3,4-tetrahydro-isoquinolin-6-yl}-benzoic acid]	10 µM
N#CCc1ccc(NC=C2C(=O)NC(=O)c3ccc(-c4ccc(C(F)(F)F)cc4)cc32)cc1 [Example 709, (4-{[1,3-Dioxo-6-(4-trifluoromethyl-phenyl)-2,3-dihydro-1H-isoquinolin-4-ylidenemethyl]-amino}-phenyl)-acetonitrile]	38.6 µM
CC(=O)c1ccc(-c2ccc3c(c2)C(=CNc2ccc(CC#N)cc2)C(=O)NC3=O)cc1 [Example 710, (4-{[6-(4-Acetyl-phenyl)-1,3-dioxo-2,3-dihydro-1H-isoquinolin-4-ylidenemethyl]-amino}-phenyl)-acetonitrile]	28 µM
N#CCc1ccc(NC=C2C(=O)NC(=O)c3ccc(-c4ccc(Cl)cc4)cc32)cc1 [Example 712, (4-{[6-(4-Chloro-phenyl)-1,3-dioxo-2,3-dihydro-1H-isoquinolin-4-ylidenemethyl]-amino}-phenyl)-acetonitrile]	7.9 µM
N#CCc1ccc(NC=C2C(=O)NC(=O)c3ccc(-c4cccc(Cl)c4)cc32)cc1 [Example 713, (4-{[6-(3-Chloro-phenyl)-1,3-dioxo-2,3-dihydro-1H-isoquinolin-4-ylidenemethyl]-amino}-phenyl)-acetonitrile]	12.8 µM
Cc1ccccc1-c1ccc2c(c1)C(=CNc1ccc(CC#N)cc1)C(=O)NC2=O [Example 717, {4-[(1,3-Dioxo-6-o-tolyl-2,3-dihydro-1H-isoquinolin-4-ylidenemethyl)-amino]-phenyl}-acetonitrile]	13.3 µM
N#CCc1ccc(NC=C2C(=O)NC(=O)c3ccc(-c4ccc(C#N)cc4)cc32)cc1 [Example 718, 4-{4-[(4-Cyanomethyl-phenylamino)-methylene]-1,3-dioxo-1,2,3,4-tetrahydro-isoquinolin-6-yl}-benzonitrile]	8.2 µM
N#CCc1ccc(NC=C2C(=O)NC(=O)c3ccc(-c4cccc(C#N)c4)cc32)cc1 [Example 719, 3-{4-[(4-Cyanomethyl-phenylamino)-methylene]-1,3-dioxo-1,2,3,4-tetrahydro-isoquinolin-6-yl}-benzonitrile]	27.5 µM
N#CCc1ccc(NC=C2C(=O)NC(=O)c3ccc(-c4ccc(-c5ccccc5)cc4)cc32)cc1 [Example 720, {4-[(6-Biphenyl-4-yl-1,3-dioxo-2,3-dihydro-1H-isoquinolin-4-ylidenemethyl)-amino]-phenyl}-acetonitrile]	21.7 µM

Compound	IC50
N#CCc1ccc(NC=C2C(=O)NC(=O)c3ccc(-c4cccc(-c5ccccc5)c4)cc32)cc1 [Example 721, {4-[(6-Biphenyl-3-yl-1,3-dioxo-2,3-dihydro-1H-isoquinolin-4-ylidenemethyl)-amino]-phenyl}-acetonitrile]	25.9 µM
CC(C)c1ccc(-c2ccc3c(c2)C(=CNc2ccc(CC#N)cc2)C(=O)NC3=O)cc1 [Example 722, (4-{[6-(4-Isopropyl-phenyl)-1,3-dioxo-2,3-dihydro-1H-isoquinolin-4-ylidenemethyl]-amino}-phenyl)-acetonitrile]	25.3 µM
CSc1ccc(-c2ccc3c(c2)C(=CNc2ccc(CC#N)cc2)C(=O)NC3=O)cc1 [Example 723, (4-{[6-(4-Methylsulfanyl-phenyl)-1,3-dioxo-2,3-dihydro-1H-isoquinolin-4-ylidenemethyl]-amino}-phenyl)-acetonitrile]	12.2 µM
CN1CCN(c2ccc(NC=C3C(=O)NC(=O)c4ccc(C=Cc5ccc(Cl)cc5)cc43)cc2)CC1 [Example 726, 6-[2-(4-Chloro-phenyl)-vinyl]-4-{[4-(4-methyl-piperazin-1-yl)-phenylamino]-methylene}-4H-isoquinoline-1,3-dione]	16.9 µM
CN1CCN(c2ccc(NC=C3C(=O)NC(=O)c4ccc(C=Cc5ccc(C(=O)O)cc5)cc43)cc2)CC1 [Example 727, 4-[2-(4-{[4-(4-Methyl-piperazin-1-yl)-phenylamino]-methylene}-1,3-dioxo-1,2,3,4-tetrahydro-isoquinolin-6-yl)-vinyl]-benzoic acid]	20.4 µM
COc1ccc(C=Cc2ccc3c(c2)C(=CNc2ccc(N4CCN(C)CC4)cc2)C(=O)NC3=O)cc1 [Example 732, 6-[2-(4-Methoxy-phenyl)-vinyl]-4-{[4-(4-methyl-piperazin-1-yl)-phenylamino]-methylene}-4H-isoquinoline-1,3-dione]	25.8 µM
COc1ccc(CNC=C2C(=O)NC(=O)c3ccc(C=Cn4ccnc4)cc32)cc1O [Example 733, 4-[(3-Hydroxy-4-methoxy-benzylamino)-methylene]-6-(2-imidazol-1-yl-vinyl)-4H-isoquinoline-1,3-dione]	0.01 µM
NS(=O)(=O)c1ccc(CNC=C2C(=O)NC(=O)c3ccc(-c4ccc(C(=O)O)cc4)cc32)cc1 [Example 741, 4-{1,3-Dioxo-4-[(4-sulfamoyl-benzylamino)-methylene]-1,2,3,4-tetrahydro-isoquinolin-6-yl}-benzoic acid]	2.3 µM
NS(=O)(=O)c1ccc(CNC=C2C(=O)NC(=O)c3ccc(-c4cccc(C(=O)O)c4)cc32)cc1 [Example 742, 3-{1,3-Dioxo-4-[(4-sulfamoyl-benzylamino)-methylene]-1,2,3,4-tetrahydro-isoquinolin-6-yl}-benzoic acid]	13.8 µM
NS(=O)(=O)c1ccc(CNC=C2C(=O)NC(=O)c3ccc(-c4ccc(C(F)(F)F)cc4)cc32)cc1 [Example 743, 4-({[1,3-Dioxo-6-(4-trifluoromethyl-phenyl)-2,3-dihydro-1H-isoquinolin-4-ylidenemethyl]-amino}-methyl)-benzenesulfonamide]	11.3 µM
NS(=O)(=O)c1ccc(CNC=C2C(=O)NC(=O)c3ccc(-c4cccc(C(F)(F)F)c4)cc32)cc1 [Example 744, 4-({[1,3-Dioxo-6-(3-trifluoromethyl-phenyl)-2,3-dihydro-1H-isoquinolin-4-ylidenemethyl]-amino}-methyl)-benzenesulfonamide]	48.6 µM
NS(=O)(=O)c1ccc(CNC=C2C(=O)NC(=O)c3ccc(-c4ccccc4C(F)(F)F)cc32)cc1 [Example 745, 4-({[1,3-Dioxo-6-(2-trifluoromethyl-phenyl)-2,3-dihydro-1H-isoquinolin-4-ylidenemethyl]-amino}-methyl)-benzenesulfonamide]	19.9 µM
CC(=O)c1ccc(-c2ccc3c(c2)C(=CNCc2ccc(S(N)(=O)=O)cc2)C(=O)NC3=O)cc1 [Example 746, 4-({[6-(4-Acetyl-phenyl)-1,3-dioxo-2,3-dihydro-1H-isoquinolin-4-ylidenemethyl]-amino}-methyl)-benzenesulfonamide]	0.5 µM
CC(=O)c1cccc(-c2ccc3c(c2)C(=CNCc2ccc(S(N)(=O)=O)cc2)C(=O)NC3=O)c1 [Example 747, 4-({[6-(3-Acetyl-phenyl)-1,3-dioxo-2,3-dihydro-1H-isoquinolin-4-ylidenemethyl]-amino}-methyl)-benzenesulfonamide]	14.5 µM
CC(=O)c1ccccc1-c1ccc2c(c1)C(=CNCc1ccc(S(N)(=O)=O)cc1)C(=O)NC2=O [Example 748, 4-({[6-(2-Acetyl-phenyl)-1,3-dioxo-2,3-dihydro-1H-isoquinolin-4-ylidenemethyl]-amino}-methyl)-benzenesulfonamide]	46.2 µM
Cc1ccccc1-c1ccc2c(c1)C(=CNCc1ccc(S(N)(=O)=O)cc1)C(=O)NC2=O [Example 754, 4-{[(1,3-Dioxo-6-o-tolyl-2,3-dihydro-1H-isoquinolin-4-ylidenemethyl)-amino]-methyl}-benzenesulfonamide]	11 µM
